Source: patent publication US12091411B2, “IRAK degraders and uses thereof” (Kymera Therapeutics, Inc., priority 2022, dated 2024)
Where two headings read alike, the source gives them in different places.

Target: T1, IRAK4 (Homo sapiens, UniProt Q9NWZ3)
T1 construct: Degradation of IRAK4 in OCI-LY10 was quantitatively measured using Meso Scale Discovery technology; endogenous in cells; host or cells: OCI-LY10
T1 sequence (Q9NWZ3 1-460): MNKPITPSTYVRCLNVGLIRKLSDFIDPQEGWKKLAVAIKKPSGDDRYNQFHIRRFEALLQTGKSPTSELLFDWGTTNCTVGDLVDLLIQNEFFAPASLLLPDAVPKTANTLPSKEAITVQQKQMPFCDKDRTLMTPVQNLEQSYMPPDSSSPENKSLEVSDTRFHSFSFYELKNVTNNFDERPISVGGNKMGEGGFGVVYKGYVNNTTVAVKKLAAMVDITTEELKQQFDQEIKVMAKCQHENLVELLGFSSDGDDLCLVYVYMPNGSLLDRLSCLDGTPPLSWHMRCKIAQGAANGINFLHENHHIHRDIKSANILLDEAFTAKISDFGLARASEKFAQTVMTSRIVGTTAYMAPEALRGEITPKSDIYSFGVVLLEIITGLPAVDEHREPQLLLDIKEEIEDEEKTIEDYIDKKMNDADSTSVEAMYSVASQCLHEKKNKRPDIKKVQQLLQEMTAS
Test: IRAK4 MSD Degradation in OCI-LY10
Assay type: cell-based
Conditions: OCI-LY10 cells, MSD
How it was run: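 OCI-LY10 cells exposed to 8-point 1:3 compound series (top 1 to 10 μM) for 4 to 24 h at 37 °C, 5% CO2. Lysate IRAK4 quantified by MSD sandwich immunoassay. DC50 from three-parameter logistic fit, binned A (<0.01 μM) to D (>0.2 μM or not tested).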

[1] = 4 hrs incubation, read-out: IRAK4 degradation in OCI-LY10 at 4 hrs: DC50
[2] = 24 hrs incubation, read-out: IRAK4 degradation in OCI-LY10 at 24 hrs: DC50

| Compound | DC50 [1] | DC50 [2] |
| --- | --- | --- |
| Cn1c(=O)n(C2CCC(=O)NC2=O)c2cccc(C3CCN(C[C@H]4CC[C@H](n5cc6cc(NC(=O)c7cccc(C(F)(F)F)n7)ccc6n5)CC4)CC3(F)F)c21 (stereo partly drawn) [I-708] | > 200 nM | 10 to 100 nM |
| COc1cc2nn([C@H]3CC[C@H](CN4CCC5(CC4)CCN(c4cccc6c4n(C)c(=O)n6C4CCC(=O)NC4=O)CC5)CC3)cc2cc1NC(=O)c1cncc([S+]([O-])C(F)(F)F)c1 (stereo partly drawn) [I-153] | > 200 nM | > 200 nM |
| Cn1c(=O)n(C2CCC(=O)NC2=O)c2cccc(C#CCN3CCN(C[C@H]4CC[C@H](n5cc(NC(=O)c6cnn7ccc(C8COC8)nc67)c(C(F)F)n5)CC4)CC3)c21 (stereo partly drawn) [I-351] | > 200 nM | > 200 nM |
| C[C@@H]1CN(CCCc2cccc3c2n(C)c(=O)n3C2CCC(=O)NC2=O)CCN1C[C@H]1CC[C@H](n2cc(NC(=O)c3cnn4ccc(N5C[C@H]6C[C@@H]5CO6)nc34)c(C(F)F)n2)CC1 (stereo partly drawn) [I-119] | > 200 nM | > 200 nM |
| Cn1c(=O)n(C2CCC(=O)NC2=O)c2cccc(N3CC[C@H](CN4CCN(C[C@H]5CC[C@H](n6cc(NC(=O)c7cnn8ccc(N9C[C@H]%10C[C@@H]9CO%10)nc78)c(C(F)F)n6)CC5)CC4)C3)c21 (stereo partly drawn) [I-364] | > 200 nM | > 200 nM |
| Cc1nn([C@H]2CC[C@H](CN3CCN(CC#Cc4cccc5c4n(C)c(=O)n5C4CCC(=O)NC4=O)CC3)CC2)cc1NC(=O)c1cnn2ccc(N3C[C@H]4C[C@@H]3CO4)nc12 (relative stereo) [I-115] | 10 to 100 nM | > 200 nM |
| CC(C)(O)c1cc2nn([C@H]3CC[C@H](CNCCCCCCCNc4cccc5c4C(=O)N(C4CCC(=O)NC4=O)C5=O)CC3)cc2cc1NC(=O)c1cccc(C(F)(F)F)n1 (stereo partly drawn) [I-139] | > 200 nM | 10 to 100 nM |
| COc1nn([C@H]2CC[C@H](CN3CCC(OCC#Cc4cccc5c4n(C)c(=O)n5C4CCC(=O)NC4=O)CC3)CC2)cc1NC(=O)c1cnn2ccc(N3C[C@H]4C[C@@H]3CO4)nc12 (stereo partly drawn) [I-169] | > 200 nM | > 200 nM |
| CN(C[C@H]1CC[C@H](n2cc(NC(=O)c3cnn4ccc(N5CC(C)(C)OC(C)(C)C5)nc34)c(C(F)F)n2)CC1)C1CCN(c2cccc3c2n(C)c(=O)n3C2CCC(=O)NC2=O)CC1 (stereo partly drawn) [I-355] | 10 to 100 nM | > 200 nM |
| Cn1c(=O)n(C2CCC(=O)NC2=O)c2cccc([C@@H]3CCN(C[C@H]4CC[C@H](n5cc6cc(NC(=O)c7cccc(C#N)n7)ncc6n5)CC4)C[C@@H]3F)c21 (stereo partly drawn) [I-636] | > 200 nM | > 200 nM |
| C[C@H]1CN(C[C@H]2CC[C@H](n3cc(NC(=O)c4cnn5ccc(N6C[C@H]7C[C@@H]6CO7)nc45)c(C(F)F)n3)CC2)CC[C@H]1OCC#Cc1cccc2c1n(C)c(=O)n2C1CCC(=O)NC1=O (stereo partly drawn) [I-26] | 10 to 100 nM | > 200 nM |
| Cn1c(=O)n(C2CCC(=O)NC2=O)c2cccc([C@H]3C[C@H](O[C@H]4CCN(C[C@H]5CC[C@H](n6cc(NC(=O)c7cnn8ccc(N9C[C@H]%10C[C@@H]9CO%10)nc78)c(C(F)F)n6)CC5)C[C@@H]4F)C3)c21 (stereo partly drawn) [I-595] | > 200 nM | > 200 nM |
| Cn1c(=O)n(C2CCC(=O)NC2=O)c2cccc(C3CCN(C[C@]4(O)CC[C@@H](n5cc6cc(NC(=O)c7cccc(C(F)(F)F)n7)ccc6n5)CC4)CC3)c21 (stereo partly drawn) [I-461] | > 200 nM | > 200 nM |
| Cn1c(=O)n(C2CCC(=O)NC2=O)c2cccc(C3CC(CN4CCN(C[C@H]5CC[C@H](n6cc(NC(=O)c7cnn8ccc(N9C[C@H]%10C[C@@H]9CO%10)nc78)c(C(F)F)n6)CC5)CC4)C3)c21 (stereo partly drawn) [I-66] | < 10 nM | > 200 nM |
| C[C@H]1CN(c2ccn3ncc(C(=O)Nc4cn([C@H]5CC[C@H](CN(C)C6CCN(c7cccc8c7n(C)c(=O)n8C7CCC(=O)NC7=O)CC6(F)F)CC5)nc4C(F)F)c3n2)C[C@H](C)O1 (stereo partly drawn) [I-533] | > 200 nM | > 200 nM |
| Cn1c(=O)n(C2CCC(=O)NC2=O)c2cccc(N3CCN(CC4COC5(C4)CN(C[C@H]4CC[C@H](n6cc7cc(NC(=O)c8cccc(C(F)(F)F)n8)ncc7n6)CC4)C5)CC3)c21 (stereo partly drawn) [I-666] | > 200 nM |  |
| Cn1c(=O)n(C2CCC(=O)NC2=O)c2cccc(N3CC4(C3)N(C[C@H]3CC[C@H](n5cc6cc(NC(=O)c7cccc(C(F)(F)F)n7)c(C#N)cc6n5)CC3)CC4(F)F)c21 (stereo partly drawn) [I-565] | > 200 nM | > 200 nM |
| Cn1c(=O)n(C2CCC(=O)NC2=O)c2cccc(C#CCC3CCN(C[C@H]4CC[C@H](n5cc(NC(=O)c6cnn7ccc(N8C[C@H]9CC8CO9)nc67)c(C(F)F)n5)CC4)CC3)c21 (stereo partly drawn) [I-15] | > 200 nM | > 200 nM |
| COc1cc2nn([C@H]3CC[C@H](CN4CCC5(CC4)CCN(c4cccc6c4n(C)c(=O)n6C4CCC(=O)NC4=O)CC5)CC3)cc2cc1NC(=O)c1cncc(OC(F)F)c1 (stereo partly drawn) [I-148] | 10 to 100 nM | > 200 nM |

| Compound | DC50 [1] | DC50 [2] |
| --- | --- | --- |
| Cn1c(=O)n(C2CCC(=O)NC2=O)c2cccc(OC3CN(C[C@H]4CC[C@H](n5cc6cc(NC(=O)c7cccc(C(F)(F)F)n7)c(C(C)(C)O)cc6n5)CC4)C3)c21 (stereo partly drawn) [I-696] | > 200 nM | < 10 nM |
| Cn1c(=O)n(C2CCC(=O)NC2=O)c2cccc([C@@H]3CCN(C[C@H]4CC[C@H](n5cc6cc(NC(=O)c7cccc(C#N)n7)ccc6n5)CC4)C[C@@H]3F)c21 (stereo partly drawn) [I-624] | > 200 nM | > 200 nM |
| CN(CC1CCN(c2cccc3c2n(C)c(=O)n3C2CCC(=O)NC2=O)CC1)c1ccc(-n2cc(NC(=O)c3cnn4cccnc34)c(C(F)F)n2)cc1 (stereo not drawn) [I-700] | > 200 nM |  |
| Cn1c(NC(=O)c2cccc(C(F)(F)F)n2)cc2cn([C@H]3CC[C@H](CN4CCN(c5cccc6c5n(C)c(=O)n6C5CCC(=O)NC5=O)CC4)CC3)nc2c1=O (stereo partly drawn) [I-767] | > 200 nM | > 200 nM |
| Cn1c(=O)n(C2CCC(=O)NC2=O)c2cccc(N3CCN([C@@H]4CCN(C[C@H]5CC[C@H](n6cc(NC(=O)c7cnn8ccc(N9C[C@H]%10C[C@@H]9CO%10)nc78)c(C(F)F)n6)CC5)C[C@H]4F)CC3)c21 (stereo partly drawn) [I-683] | > 200 nM | < 10 nM |
| Cn1c(=O)n(C2CCC(=O)NC2=O)c2cccc(N3CCC(N(CC(F)F)C[C@H]4CC[C@H](n5cc(NC(=O)c6cnn7cccnc67)c(C(F)F)n5)CC4)CC3)c21 (stereo partly drawn) [I-312] | > 200 nM | > 200 nM |
| Cn1c(=O)n(C2CCC(=O)NC2=O)c2cccc(N3CCC(OC[C@H]4CC[C@H](n5cc(NC(=O)c6cnn7cccnc67)c(C(F)F)n5)CC4)CC3)c21 (stereo partly drawn) [I-240] | > 200 nM | > 200 nM |
| Cn1c(=O)n(C2CCC(=O)NC2=O)c2cccc(OC3CN(C[C@H]4CC[C@H](n5cc6cc(NC(=O)c7cccc(C(F)(F)F)n7)ncc6n5)CC4)C3)c21 (stereo partly drawn) [I-608] | > 200 nM | > 200 nM |
| O=C1CCC(c2ccc(C#CCN3CCN(C[C@H]4CC[C@@H](n5cc(NC(=O)c6cnn7ccc(N8C[C@@H]9C[C@H]8CO9)nc67)c(C(F)F)n5)CC4)CC3)cc2)C(=O)N1 (stereo partly drawn) [I-126] | > 200 nM | > 200 nM |
| COc1ccc2c(c1N1CCC(N(C)C[C@H]3CC[C@H](n4cc(NC(=O)c5cnn6cccnc56)c(C(F)F)n4)CC3)C(F)C1)n(C)c(=O)n2C1CCC(=O)NC1=O (stereo partly drawn) [I-563] | > 200 nM | > 200 nM |
| Cn1c(=O)n(C2CCC(=O)NC2=O)c2cccc(N3CC(F)(CN4CCN(C[C@H]5CC[C@H](n6cc(NC(=O)c7cnn8ccc(N9C[C@H]%10C[C@@H]9CO%10)nc78)c(C(F)F)n6)CC5)CC4)C3)c21 (stereo partly drawn) [I-678] | > 200 nM | < 10 nM |
| COc1cc2nc([C@H]3CC[C@H](CN4CCC5(CC4)CCN(c4cccc6c4n(C)c(=O)n6C4CCC(=O)NC4=O)CC5)CC3)ccc2cc1NC(=O)c1cncc(C#N)c1 (stereo partly drawn) [I-204] | < 10 nM | > 200 nM |
| COc1cc2nn([C@H]3CC[C@H](CN4CCC5(CC4)CCN(c4cccc6c4n(C)c(=O)n6C4CCC(=O)NC4=O)CC5)CC3)cc2cc1NC(=O)c1cncc(C#N)c1 (stereo partly drawn) [I-156] | > 200 nM | 10 to 100 nM |
| O=C1CCN(c2cc(C#CCN3CCN(C[C@H]4CC[C@@H](n5cc(NC(=O)c6cnn7ccc(N8C[C@H]9C[C@@H]8CO9)nc67)c(C(F)F)n5)CC4)CC3)ccc2Cl)C(=O)N1 [I-258] | > 200 nM | > 200 nM |
| CN(C[C@H]1CC[C@H](n2cc(NC(=O)c3cnn4ccc(N5CCC6(CC5)CC6)nc34)c(C(F)F)n2)CC1)C1CCN(c2cccc3c2n(C)c(=O)n3C2CCC(=O)NC2=O)CC1 (stereo partly drawn) [I-272] | > 200 nM | < 10 nM |
| Cn1c(=O)n(C2CCC(=O)NC2=O)c2cccc(C#CCN3CCN(C[C@H]4CC[C@H](n5cc(NC(=O)c6cnn7ccc(N8C9COCC8C9)nc67)c(C(F)F)n5)CC4)CC3)c21 (stereo partly drawn) [I-338] | > 200 nM | < 10 nM |
| CN(C[C@H]1CC[C@H](n2cc3cc(NC(=O)c4cccc(C(F)(F)F)n4)ccc3n2)CC1)C1CCN(c2cccc3c2n(C)c(=O)n3C2CCC(=O)NC2=O)CC1(F)F (stereo partly drawn) [I-474] | > 200 nM | > 200 nM |
| C[C@H]1CN(C[C@H]2CC[C@H](n3cc(NC(=O)c4cnn5ccc(N6C[C@H]7C[C@@H]6CO7)nc45)c(C(F)F)n3)CC2)CC[C@@H]1OCC#Cc1cccc2c1n(C)c(=O)n2[C@@H]1CCC(=O)NC1=O (single isomer, unassigned) [I-73] | 10 to 100 nM | > 200 nM |
